Test [1] has as its target T1, Polyunsaturated fatty acid 5-lipoxygenase (Homo sapiens, UniProt P09917).
T1 sequence (P09917 whole entry): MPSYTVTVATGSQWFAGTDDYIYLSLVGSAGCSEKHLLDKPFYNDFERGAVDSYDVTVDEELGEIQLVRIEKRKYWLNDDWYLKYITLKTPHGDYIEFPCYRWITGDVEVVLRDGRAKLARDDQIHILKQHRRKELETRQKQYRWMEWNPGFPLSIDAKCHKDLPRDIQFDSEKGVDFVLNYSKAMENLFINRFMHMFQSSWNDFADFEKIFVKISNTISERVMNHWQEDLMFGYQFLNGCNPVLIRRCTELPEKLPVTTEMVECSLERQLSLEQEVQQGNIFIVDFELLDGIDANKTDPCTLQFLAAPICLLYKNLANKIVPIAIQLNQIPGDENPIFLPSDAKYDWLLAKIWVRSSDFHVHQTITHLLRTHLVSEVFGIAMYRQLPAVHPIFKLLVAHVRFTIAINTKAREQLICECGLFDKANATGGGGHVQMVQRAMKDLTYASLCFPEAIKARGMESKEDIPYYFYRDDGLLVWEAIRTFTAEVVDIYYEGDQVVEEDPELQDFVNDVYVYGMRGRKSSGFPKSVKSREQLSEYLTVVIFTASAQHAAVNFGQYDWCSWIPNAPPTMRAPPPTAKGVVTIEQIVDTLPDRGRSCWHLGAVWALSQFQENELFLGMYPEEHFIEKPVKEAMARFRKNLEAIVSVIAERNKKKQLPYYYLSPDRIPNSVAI
The experiment in a line: Inhibition of 5-LOX (unknown origin).

The target in test [2] is T2, Prostaglandin G/H synthase 2 (Homo sapiens, UniProt P35354).
T2 sequence (P35354 whole entry): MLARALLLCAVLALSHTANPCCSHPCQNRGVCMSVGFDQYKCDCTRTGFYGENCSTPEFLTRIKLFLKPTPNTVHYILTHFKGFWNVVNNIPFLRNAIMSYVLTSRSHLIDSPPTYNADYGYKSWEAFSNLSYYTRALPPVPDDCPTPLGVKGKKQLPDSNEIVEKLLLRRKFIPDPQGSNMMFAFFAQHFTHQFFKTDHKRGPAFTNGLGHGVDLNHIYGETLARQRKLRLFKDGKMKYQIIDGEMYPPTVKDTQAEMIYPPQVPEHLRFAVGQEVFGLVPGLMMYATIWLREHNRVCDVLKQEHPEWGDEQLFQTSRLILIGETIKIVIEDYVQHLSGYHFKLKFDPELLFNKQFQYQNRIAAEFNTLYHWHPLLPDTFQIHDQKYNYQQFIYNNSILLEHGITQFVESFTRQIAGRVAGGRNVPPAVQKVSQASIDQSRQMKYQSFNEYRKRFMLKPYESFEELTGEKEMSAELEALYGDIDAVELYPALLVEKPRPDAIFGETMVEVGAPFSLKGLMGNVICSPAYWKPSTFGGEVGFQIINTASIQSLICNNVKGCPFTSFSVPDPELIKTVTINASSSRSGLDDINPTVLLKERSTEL
Put plainly: Inhibition of COX-2 (unknown origin) using arachidonic acid as substrate preincubated for 5 mins followed by substrate addition by colorimetric assay.

Test [3] deals with T1, Polyunsaturated fatty acid 5-lipoxygenase. The experiment in a line: Inhibition of 5-LOX (unknown origin) by colorimetric assay.
The test system of test [4] is Rattus norvegicus. The experiment in a line: Antiinflammatory activity in Wistar rat carragenan-induced paw edema model assessed as reduction in edema thickness at 50 mg/kg, po and measured after 2 hrs. Type of test: functional. The arrangement: scale not given: the % may be the effect or the level left.
Test [5] concerns the target T3, Prostaglandin G/H synthase 1 (Homo sapiens, UniProt P23219). Put plainly: Inhibition of recombinant human COX-1 using arachidonic acid as substrate by ELISA. For orientation: ELISA stands for enzyme-linked immunosorbent assay.
Test [6] addresses T1, Polyunsaturated fatty acid 5-lipoxygenase. The experiment in a line: Inhibition of 5-LOX (unknown origin) by fluorometric analysis.
The target of test [7] is T2, Prostaglandin G/H synthase 2. The experiment in a line: Inhibition of recombinant human COX-2 using arachidonic acid as substrate by ELISA.
The species entered for the next test is Homo sapiens. The experiment in a line: Selectivity index, ratio of IC50 for inhibition of human COX1 to IC50 for inhibition of human COX2.
The subject of test [8] is Rattus norvegicus. Put plainly: Antiinflammatory activity in po dosed Sprague-Dawley rat assessed as reduction in carragenan-induced paw edema and measured after 4 hrs by vernier caliper method. More on the design: scale not given: the % may be the effect or the level left. Type of test: functional.
Test [9] deals with T2, Prostaglandin G/H synthase 2. Put plainly: Inhibition of COX-2 (unknown origin) by colorimetric method.
In test [10] the test system is Rattus norvegicus. The experiment in a line: Antiinflammatory activity in carragenan-induced paw edema rat model assessed as reduction in edema thickness at 28 microg/kg, ip and measured after 4 hrs by digital Vernier caliper analysis. As to conditions: dose 28 µg/kg. Type of test: functional. The arrangement: scale not given: the % may be the effect or the level left.

Test [11] addresses T2, Prostaglandin G/H synthase 2. Put plainly: Inhibition of recombinant human COX-2 by enzyme immune assay.
The target of test [12] is T1, Polyunsaturated fatty acid 5-lipoxygenase. Put plainly: Inhibition of 5-LOX (unknown origin) by enzyme immune assay.
Test [13] shares this target. The experiment in a line: Inhibition of 5-LOX (unknown origin) using linoleic acid as substrate preincubated for 5 mins followed by substrate addition by spectrophotometric assay.
Test [14] has the same target. The experiment in a line: Inhibition of 5-LOX (unknown origin) by spectrophotometric method.
The target of test [15] is T2, Prostaglandin G/H synthase 2. The experiment in a line: Inhibition of COX-2 (unknown origin) by 2,7-dichlorofluorescein dye based spectrophotometric method.
For test [16] the target is unchanged. The experiment in a line: Inhibition of COX-2 (unknown origin).
Test [17] can be described thus: Selectivity index, ratio IC50 for inhibition of ovine COX-1 to IC50 for inhibition of recombinant human COX-2.
A short description of test [18]: Inhibition of soybean 5-LOX using linoleic acid as substrate by spectrophotometric analysis. More on the design: species or system Glycine max.
Test [19] deals with T2, Prostaglandin G/H synthase 2. The experiment in a line: Inhibition of COX-2 (unknown origin) using arachidonic acid as substrate preincubated for 15 mins followed by substrate addition by colorimetric assay.
A further test relates to DU-145. The experiment in a line: Antiproliferative activity against human DU-145 cells assessed as reduction in cell viability incubated for 48 hrs by MTT assay. To be noted: DU-145, 48 h. The test is classed as functional, cell-based. On the technique in general: Formazan colour is commonly taken as a measure of viable cells.
In test [20] the target is T2, Prostaglandin G/H synthase 2. Put plainly: Inhibition of recombinant human COX-2 using arachidonic acid as substrate preincubated for 10 mins followed by substrate addition and measured after 2 mins by ELISA.
The test system of test [21] is Rattus norvegicus. The experiment in a line: Antiinflammatory activity in Wistar rat assessed as reduction in carragenan-induced paw edema at 10 mg/kg, po for 7 days followed by carrageenan stimulation and measured upto 6 hrs by vernier caliper method. As to conditions: time 7 day. The arrangement: scale not given: the % may be the effect or the level left. Type of test: functional.

The target in test [22] is T3, Prostaglandin G/H synthase 1. Put plainly: Inhibition of human COX-1 using arachidonic acid as substrate preincubated for 10 mins followed by substrate addition and measured after 2 mins by ELISA.
In test [23] the target is T2, Prostaglandin G/H synthase 2. The experiment in a line: Inhibition of recombinant human COX-2 using arachidonic acid as substrate preincubated for 10 mins followed by substrate addition and measured after 2 mins by Ellman's reagent based ELISA. On the technique in general: DTNB colorimetry detects thiols as they appear.
Test [24] deals with T1, Polyunsaturated fatty acid 5-lipoxygenase. Put plainly: Inhibition of recombinant human 5-LOX using arachidonic acid as substrate incubated for 10 mins by spectrophotometric analysis.

T3 sequence (P23219 whole entry): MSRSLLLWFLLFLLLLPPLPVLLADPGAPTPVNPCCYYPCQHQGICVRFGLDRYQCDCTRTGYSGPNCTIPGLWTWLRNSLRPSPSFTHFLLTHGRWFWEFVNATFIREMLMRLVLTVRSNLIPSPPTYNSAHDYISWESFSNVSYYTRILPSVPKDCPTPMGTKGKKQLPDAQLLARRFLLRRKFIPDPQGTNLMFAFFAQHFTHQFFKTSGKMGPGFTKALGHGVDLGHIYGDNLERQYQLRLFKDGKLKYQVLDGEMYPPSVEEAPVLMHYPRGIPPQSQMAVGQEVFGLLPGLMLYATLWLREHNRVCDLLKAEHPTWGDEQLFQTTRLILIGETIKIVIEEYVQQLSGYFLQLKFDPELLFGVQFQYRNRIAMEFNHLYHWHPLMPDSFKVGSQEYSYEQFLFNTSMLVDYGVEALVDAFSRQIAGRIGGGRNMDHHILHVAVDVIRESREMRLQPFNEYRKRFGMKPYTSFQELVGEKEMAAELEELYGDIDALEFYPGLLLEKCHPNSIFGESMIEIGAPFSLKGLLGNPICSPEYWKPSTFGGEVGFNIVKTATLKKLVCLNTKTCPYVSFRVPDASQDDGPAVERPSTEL

With `O=C1N/C(=N\c2nc(-c3ccccc3)cs2)S/C1=C\c1ccc(Cl)cc1`, inhibition in test [1] was half-maximal at 54 µM (IC50).

For the compound `N=C1/C(=N\Nc2ccc(S(N)(=O)=O)cc2)C(N)=NN1c1ccccc1C(=O)O`, the half-inhibitory concentration (IC50) (commonly the point on the concentration scale where inhibition reaches its midpoint) in [2] came out at 1.12 µM; in [3], 2.73 µM. Also, in the test with Rattus norvegicus [4], the Activity is reported as 15%.

`CC1=NN(c2ccc(S(N)(=O)=O)cc2)C(=O)/C1=N/Nc1ccc(C(=O)O)cc1`: the IC50 turned out to be 0.77 µM in [2] and 0.53 µM in [3]. In addition, the Activity in the test on Rattus norvegicus [4] came to 72.72%.

`COc1cccc(/C=c2\c(=O)[nH]n3c(=O)c4ccccc4nc23)c1`: the figures for the IC50 in [5], in test [6] and in [7] were 1.48 µM, 0.6 µM and 0.488 µM, respectively.

Turning to `N#Cc1c(-c2ccc(Cl)cc2)csc1NC(=O)CN1CCOCC1`, the 50% inhibitory concentration (IC50) in [1] came to 4.33 µM; in test [9], 5.45 µM. Besides, the Ratio IC50 in the test filed under Homo sapiens came out at 8.37. The Activity with Rattus norvegicus [8] is given as 58.77%.

On to `O=C(NC1CCCCC1)c1cc(NCc2cc(O)ccc2O)ccc1O`, for which the Activity in the test on Rattus norvegicus [10] stood at 114.12%. In test [11], the concentration for half-maximal inhibition (IC50) is 0.1 µM.

Regarding `CC(C)NC(=O)c1cc(N)ccc1O`, the IC50 in test [12] was 3.41 µM.

Consider `Cc1c(C(=O)N2CCN(c3ccccc3)CC2)nc2ccc(Cl)cc2c1O`, for which it took 5.91 µM to reach half-maximal inhibition in test [13] (IC50). Also, the Ratio IC50 in the test filed under Homo sapiens stood at 7.61.

Consider `COc1ccc(/C=c2\c(=O)[nH]n3c(=O)c4ccccc4nc23)cc1OC`, for which the half-inhibitory concentration (IC50) in test [5] was 0.684 µM; in [6], 1 µM; in test [7], 0.284 µM.

With `Cc1ccc(-c2cc(C(F)(F)F)nn2-c2ccc(S(N)(=O)=O)cc2)cc1` [CELECOXIB], the Activity in the test with Rattus norvegicus [4] was 15.7%; in the test on Rattus norvegicus [8], 73.56%.

With `CCCCC(=O)OCC[C@@H]1CC=C[C@@H]2[C@H]1C(=O)O[C@@]2(C)CO`, the IC50 in test [14] was 2580 µM; in test [15] it was 2380 µM.

For the compound `O=C(O)c1ccc(O)c(O)c1` [PROTOCATECHUIC ACID], in test [16], 25.4 µM corresponded to half-maximal inhibition (IC50).

`CCCCCCNC(=O)c1cc(NCc2cc(O)ccc2O)ccc1O`: the Ratio IC50 in test [17] came out at 145. The Activity with Rattus norvegicus [10] is 40.05%. Besides, the IC50 in test [12] amounted to 11.9 µM; in test [11], 0.1 µM.

In the case of `CON(C)C(=O)c1ccc(-c2nc(CSc3nc4ccccc4s3)no2)cc1`, the IC50 was found to be 5.1 µM in test [18] and 7.6 µM in test [19].

Take `COc1cc([C@@H]2c3cc4c(cc3[C@@H](O[C@@H]3O[C@@H]5CO[C@@H](C)O[C@H]5[C@H](O)[C@H]3O)[C@H]3COC(=O)[C@H]23)OCO4)cc(OC)c1O` [ETOPOSIDE]: the half-maximal inhibitory concentration (IC50) with DU-145 was 9.8 µM.

For the compound `O=C(c1sc(N(c2ccccc2)c2ccccc2)nc1-c1ccc([N+](=O)[O-])cc1)c1cccc2ccccc12`, the IC50 in test [20] is 0.07 µM; in test [13] it was 0.29 µM; in test [22], 8.06 µM. Besides, in the test with Rattus norvegicus [21], the Activity is 63%. Also, the Ratio IC50 in the test filed under Homo sapiens amounted to 115.

For the compound `Cc1ccc(-c2ncc(Cl)cc2-c2ccc(S(C)(=O)=O)cc2)cn1`, in the test listed under Homo sapiens, the Ratio IC50 came to 91.3.

For `NC(=O)c1ccc(-c2nc(CSc3nc4ccccc4s3)no2)cc1`, the half-inhibitory concentration (IC50) in test [18] is 6.4 µM; in test [19] it was 6.8 µM.

As to `CC1=CCCC2C1(C)CCC(C)C2(C)CCC1=CC(=O)OC1O` (centres undefined), the concentration for half-maximal inhibition (IC50) in test [23] was found to be 10.3 µM; in test [24] it was 14.4 µM.

The values above are taken from ChEMBL document CHEMBL5241097, “Synthetically-tailored and nature-derived dual COX-2/5-LOX inhibitors: Structural aspects and SAR” (Eur J Med Chem, 2021).
